One data set has as its system male dd-strain rats. In words: Acute toxicity test (minimum lethal dose). The settings on record: mortality for 7 days. The class given is in vivo. How it is done: Groups of male dd-strain rats (each group consisting of five rats) weighing 20±1 g were used. The compounds of the present invention were administered orally (po: 0.3 mg/g) or intraperitoneally (ip: 0.1 mg/g). The MLD (minimum lethal dose) was calculated from the mortality for 7 days after the administration to obtain the results given in Table 1.

Data set [1] relates to isolated ileum of guinea-pig. In words: Test for anticholinergic effects on the isolated ileum of guinea-pig (acetylcholine contraction, in vitro). The arrangement: species or system guinea-pig (male Hartly-strain). The conditions noted are these: depressing ratio of 80% or more of acetylcholine contraction, compound 3 minutes before; for minimal effective concentration: Cavia porcellus, 0.05 h, read-out: Anticholinergic activity: MED (minimum effective dose). How it is done: (§1) Male Hartly-strain guinea-pigs weighing about 250 g are killed and the abdomen is opened. The part (2-3 cm in length) of the ileum 10 cm away from the caecum to the pylorus is cut off as a preparation. The preparation is suspended with serre-fine in a Magnus bath containing 10 ml of Tyrode's solution at 32±1° C. under an air bubble. The contraction of the ileum is recorded on Kymograph through hebel when 0.1 ml of acetylcholine at a concentration of 10^-3 g/ml is added to the Tyrode's solution.
(§2) On the other hand, 3 minutes after administration of the test compounds, the same procedure as mentioned above is carried out to record the contraction.

Data set [2] deals with isolated ileum of guinea-pig. The data set can be described thus: Test for antihistaminergic effects on the isolated ileum of guinea-pig (histamine contraction, in vitro). More on the design: species or system guinea-pig (male Hartly-strain). The settings on record: depressing ratio of 80% or more of histamine contraction; for minimal effective concentration: Cavia porcellus, 0.05 h, read-out: Antihistaminergic activity: MED. The protocol: as §1, §2
In this test, 0.1 ml of histamine at a concentration of 5×10^-3 g/l is used.

The test system of data set [3] is blood platelets (platelet-rich plasma). The data set can be described thus: Test for the inhibition of platelet aggregation (collagen-induced, platelet-rich plasma). The class given is cell-based, male white rabbits. The settings on record: depressing ratio of 50% of collagen-induced aggregation, compound 3 minutes before; for minimal effective concentration: Oryctolagus cuniculus, Platelet, 0.05 h, read-out: Antiplatelet aggregation activity: MED. The protocol: In this test, 9 vols. of blood are sampled from the caroted artery of male white rabbits weighing 2 to 2.5 kg and placed in a silicon-coated flask containing 1 vol. of 3.8% sodium citrate. The thus obtained blood is centrifuged at 1,000 rpm for 15 minutes to obtain platelet-rich plasma. The aggregation of the blood platelets is observed using an aggregometer, when collagen is added to the platelet-rich plasma to the extent of the final concentration that 50% of platelet aggregation is caused in the presence of 100 γ/ml of aspirin. On the other hand, 3 minutes after administration of the test compounds to the platelet-rich plasma, the same procedure as mentioned above is carried out to observe the aggregation of blood platelet. The test compounds showing a depressing ratio of 50%, compared with the inhibition of aggregation by collagen alone, are concluded to have antiplatelet aggregation activity.

Another data set in a line: Antiasthmatic activity. It counts as in vivo. The conditions noted are these: po; for minimal effective dose: read-out: Antiasthmatic activity: MED.

Bounds are passed on as bounds.

Consider 16 compounds from US4396550A, “Dibenz [b,e] oxepin derivatives” (Kyowa Hakko Kogyo Co., Ltd., priority 1980, dated 1983).

With “4-methyl-11-(3-quinuclidinyl)amino-6,11-dihydrodibenz[b,e]oxepin [Compound 56]”, the “Acute toxicity: MLD (minimum lethal dose)” value (from here on “Acute toxicity: MLD”) in the data set on male dd-strain rats (ip) stood at 100 mg/kg; in the data set on male dd-strain rats (po) it was 200 mg/kg. Further, the “Anticholinergic activity: MED (minimum effective dose)” value in data set [1] is 1 µg/mL. Moreover, in data set [2], the “Antihistaminergic activity: MED” value came to 1 µg/mL. The “Antiplatelet aggregation activity: MED” value in data set [3] is 20 µg/mL. Moreover, in “Antiasthmatic activity”, the “Antiasthmatic activity: MED” value turned out to be 100 mg/kg.
On to `CCc1ccc2c(c1)C(NCCN(CC)CC)c1ccccc1CO2` (stereo not drawn) [Compound 1, 2-ethyl-11-{2-(diethylamino)ethyl}amino-6,11-dihydrodibenz[b,e]oxepin], for which the entries for the “Acute toxicity: MLD” value with male dd-strain rats (ip) and in the data set with male dd-strain rats (po) were > 100 mg/kg and > 300 mg/kg, respectively. For the same compound, the results for the minimal effective concentration in data set [1], in data set [2] and in data set [3] were 1 µg/mL, 1 µg/mL and 20 µg/mL, respectively. For the same compound, in the data set “Antiasthmatic activity”, the minimal effective dose is 50 mg/kg.
As to `CCN(CC)CCNC1c2ccccc2COc2ccc(C)cc21` (stereo not drawn) [Compound 8, 2-methyl-11-{2-(diethylamino)ethyl}amino-6,11-dihydrodibenz[b,e]oxepin], the “Acute toxicity: MLD” value is reported as > 100 mg/kg in the data set with male dd-strain rats (ip) and 200 mg/kg in the data set with male dd-strain rats (po). Besides, the minimal effective concentration in data set [1] was determined as 10 µg/mL; in data set [2], 1 µg/mL; in data set [3], 20 µg/mL. In “Antiasthmatic activity”, the minimal effective dose amounted to 25 mg/kg.
As for `CCN(CC)CCNC1c2ccccc2COc2ccc(F)cc21` (stereo not drawn) [Compound 9, 2-fluoro-11-{2-(diethylamino)ethyl}amino-6,11-dihydrodibenz[b,e]oxepin], the “Acute toxicity: MLD” value in the data set on male dd-strain rats (ip) is listed as 100 mg/kg; with male dd-strain rats (po), > 300 mg/kg. For the same compound, the minimal effective concentration in data set [1] worked out at 3 µg/mL; in data set [2], 1 µg/mL; in data set [3], 50 µg/mL. In the data set “Antiasthmatic activity”, the minimal effective dose was found to be 50 mg/kg.
`CCC(C)c1ccc2c(c1)C(NCCN(CC)CC)c1ccccc1CO2` (stereo not drawn) [Compound 11, 2-(1-methyl) propyl-11-{2-(diethylamino)ethyl}amino-6,11-dihydrodibenz[b,e]oxepin]: the entries for the “Acute toxicity: MLD” value with male dd-strain rats (ip) and in the data set on male dd-strain rats (po) were 100 mg/kg and > 300 mg/kg, respectively. Moreover, the minimal effective concentration in data set [1] worked out at 0.03 µg/mL; in data set [2] it was 0.3 µg/mL; in data set [3] it was 10 µg/mL. The minimal effective dose in the data set “Antiasthmatic activity” worked out at 100 mg/kg.
Take `CCN(CC)CCNC1c2ccccc2COc2ccc(OC)cc21` (stereo not drawn) [Compound 13, 2-methoxy-11-{2-(diethylamino)ethyl}amino-6,11-dihydrodibenz[b,e]oxepin]: the “Acute toxicity: MLD” value in the data set with male dd-strain rats (ip) was > 100 mg/kg; in the data set with male dd-strain rats (po), > 300 mg/kg. The minimal effective concentration in data set [1] came out at 1 µg/mL; in data set [2] it was 0.3 µg/mL; in data set [3], 20 µg/mL. In addition, the minimal effective dose in “Antiasthmatic activity” was 100 mg/kg.
Consider `Cc1ccc2c(c1)C(NCCCN(C)C)c1ccccc1CO2` (stereo not drawn) [Compound 14, 2-methyl-11-{3-(dimethylamino)propyl}amino-6,11-dihydrodibenz[b,e]oxepin], for which the “Acute toxicity: MLD” value with male dd-strain rats (ip) was > 100 mg/kg; in the data set on male dd-strain rats (po), > 300 mg/kg. The minimal effective concentration in data set [1] was 10 µg/mL; in data set [2], 10 µg/mL; in data set [3] it was 20 µg/mL. In addition, in the data set “Antiasthmatic activity”, the minimal effective dose was 100 mg/kg.
With `Cc1ccc2c(c1)C(NCCN(C)C)c1ccccc1CO2` (stereo not drawn) [Compound 16, 2-methyl-11-{2-(dimethylamino)ethyl}amino-6,11-dihydrodibenz[b,e]oxepin], the “Acute toxicity: MLD” value in the data set on male dd-strain rats (ip) was > 100 mg/kg; with male dd-strain rats (po) it was 300 mg/kg. Further, the values for the minimal effective concentration in data set [1], in data set [2] and in data set [3] were 3 µg/mL, 10 µg/mL and 50 µg/mL, respectively. Also, the minimal effective dose in the data set “Antiasthmatic activity” is 25 mg/kg.
Regarding `CCc1ccc2c(c1)C(NCCN(C)C)c1ccccc1CO2` (stereo not drawn) [Compound 17, 2-ethyl-11-{2-(dimethylamino)ethyl}amino-6,11-dihydrodibenz[b,e]oxepin], the figures for the “Acute toxicity: MLD” value in the data set on male dd-strain rats (ip) and with male dd-strain rats (po) were > 100 mg/kg and 300 mg/kg, respectively. Moreover, the minimal effective concentration turned out to be 0.01 µg/mL in data set [1], 0.3 µg/mL in data set [2] and 50 µg/mL in data set [3]. In “Antiasthmatic activity”, the minimal effective dose turned out to be 10 mg/kg.
As for `CN(C)CCNC1c2ccccc2COc2ccc(F)cc21` (stereo not drawn) [Compound 18, 2-fluoro-11-{2-(dimethylamino)ethyl}amino-6,11-dihydrodibenz[b,e]oxepin], the “Acute toxicity: MLD” value was > 100 mg/kg with male dd-strain rats (ip) and > 300 mg/kg in the data set with male dd-strain rats (po). Moreover, the minimal effective concentration stood at 0.3 µg/mL in data set [1], 0.3 µg/mL in data set [2] and 50 µg/mL in data set [3]. Besides, the minimal effective dose in the data set “Antiasthmatic activity” came to 10 mg/kg.
As for `CN(C)CCNC1c2ccccc2COc2ccc(Cl)cc21` (stereo not drawn) [Compound 19, 2-chloro-11-{2-(dimethylamino)ethyl}amino-6,11-dihydrodibenz[b,e]oxepin], the “Acute toxicity: MLD” value in the data set on male dd-strain rats (ip) is reported as > 100 mg/kg; in the data set with male dd-strain rats (po), > 300 mg/kg. The minimal effective concentration turned out to be 3 µg/mL in data set [1], 1 µg/mL in data set [2] and 50 µg/mL in data set [3]. For the same compound, the minimal effective dose in the data set “Antiasthmatic activity” turned out to be 25 mg/kg.
For the compound `Cc1ccc2c(c1)C(NC1CN3CCC1CC3)c1ccccc1CO2` (stereo not drawn) [Compound 20, 2-methyl-11-(3-quinuclidinyl)amino-6,11-dihydrodibenz[b,e]oxepin], the results for the “Acute toxicity: MLD” value in the data set on male dd-strain rats (ip) and in the data set on male dd-strain rats (po) were 50 mg/kg and 300 mg/kg, respectively. The minimal effective concentration is 1 µg/mL in data set [1], 0.1 µg/mL in data set [2] and 100 µg/mL in data set [3]. Moreover, the minimal effective dose in the data set “Antiasthmatic activity” amounted to 50 mg/kg.
`CCc1ccc2c(c1)C(NC1CN3CCC1CC3)c1ccccc1CO2` (stereo not drawn) [Compound 21, 2-ethyl-11-(3-quinuclidinyl)amino-6,11-dihydrodibenz[b,e]oxepin]: the “Acute toxicity: MLD” value with male dd-strain rats (ip) was 100 mg/kg; in the data set on male dd-strain rats (po) it was 300 mg/kg. The minimal effective concentration was 0.1 µg/mL in data set [1], 0.1 µg/mL in data set [2] and 50 µg/mL in data set [3]. For the same compound, the minimal effective dose in the data set “Antiasthmatic activity” was 25 mg/kg.
In the case of `OCCN1CCN(C2c3ccccc3COc3ccc(Cl)cc32)CC1` (stereo not drawn) [Compound 40, 2-chloro-11-{4-(2-hydroxyethyl)-1-piperazinyl}-6,11-dihydrodibenz[b,e]oxepin], the “Acute toxicity: MLD” value is given as > 100 mg/kg in the data set with male dd-strain rats (ip) and > 300 mg/kg in the data set on male dd-strain rats (po). Moreover, the minimal effective concentration in data set [2] was 3 µg/mL; in data set [3] it was 100 µg/mL. Moreover, in “Antiasthmatic activity”, the minimal effective dose was found to be 50 mg/kg.
In the case of `CCC(C)(C)c1ccc2c(c1)C(NC1CN3CCC1CC3)c1ccccc1CO2` (stereo not drawn) [Compound 53, 2-(1,1-dimethyl)propyl-11-(3-quinuclidinyl)amino-6,11-dihydrodibenz[b,e]oxepin], the figures for the “Acute toxicity: MLD” value in the data set with male dd-strain rats (ip) and in the data set with male dd-strain rats (po) were 50 mg/kg and > 300 mg/kg, respectively. Further, the minimal effective concentration in data set [1] came out at 10 µg/mL; in data set [2] it was 1 µg/mL. Besides, in the data set “Antiasthmatic activity”, the minimal effective dose is 50 mg/kg.
As to `Cc1ccc2c(c1)C(NCCN1CCOCC1)c1ccccc1CO2` (stereo not drawn) [Compound 59, 2-methyl-11-(2-morpholinoethyl)amino-6,11-dihydrodibenz[b,e]oxepin], the figures for the “Acute toxicity: MLD” value in the data set with male dd-strain rats (ip) and with male dd-strain rats (po) were > 100 mg/kg and 200 mg/kg, respectively. In addition, the minimal effective concentration in data set [2] was determined as 10 µg/mL; in data set [3], 100 µg/mL. Moreover, in the data set “Antiasthmatic activity”, the minimal effective dose is 100 mg/kg.
